Results as given in patent publication US20050182252A1, “Novel 2'-C-methyl nucleoside derivatives” (priority 2004, published 2005).
Counter-ions that a name gives are not always drawn.

Work on `C[C@@]1(O)[C@H](O)[C@@H](COP2(=O)OCC[C@@H](c3ccc(S(C)(=O)=O)cc3)O2)O[C@H]1n1cnc2c(N)ncnc21` (stereo partly drawn) (as salt: trifluoroacetic acid salt) [Compound 21.8, cis-5′-O-[4-(4-methylsulfonylphenyl)-2-oxo-1,3,2-dioxaphosphorinan-2-yl]-2′-C-beta-methyl-adenosine trifluoroacetic acid salt] yielded a melting point of 185 to 187 °C.
With `C[C@@]1(O)[C@H](O)[C@@H](COP2(=O)OCC[C@H](c3cc(F)ccc3F)O2)O[C@H]1n1ccc2c(N)ncnc21` (stereo partly drawn) [Compound 16.2, 4-amino-7-(cis-5′-O-[4-(2,5-difluorophenyl)-2-oxo-1,3,2-dioxaphosphorinan-2-yl]-2-C-methyl-beta-D-ribofuranosyl)-7H-pyrrolo[2,3-d]pyrimidine] the melting point was 145 to 148 °C.
`C[C@@]1(O)[C@H](O)[C@@H](COP2(=O)OCC[C@H](c3ccc(F)c(Cl)c3)O2)O[C@H]1n1ccc2c(N)ncnc21` (stereo partly drawn) [Compound 16.3, 4-amino-7-(cis-5′-O-[4-(3-chloro-4-fluorophenyl)-2-oxo-1,3,2-dioxaphosphorinan-2-yl]-2′-C-methyl-beta-D-ribofuranosyl)-7H-pyrrolo[2,3-d]pyrimidine] gave a melting point of 128 to 130 °C.
`CC1(C)C[C@H](c2ccccc2)OP(=O)(OC[C@H]2O[C@@H](n3ccc4c(N)ncnc43)[C@](C)(O)[C@@H]2O)O1` (stereo partly drawn) [Compound 16.4, 4-amino-7-(cis-5′-O-[6,6-dimethyl-4-phenyl-2-oxo-1,3,2-dioxaphosphorinan-2-yl]-2′-C-methyl-beta-D-ribofuranosyl)-7H-pyrrolo[2,3-d]pyrimidine] showed a melting point of 140 to 142 °C.
Compound `C[C@@]1(O)[C@H](O)[C@@H](CO[P@@]2(=O)OCC[C@@H](c3cccc(Cl)c3)O2)O[C@H]1n1ccc2c(N)ncnc21` [Compound 16.5, 4-amino-7-(cis-5′-[4-(S)-(3-chlorophenyl)-2-oxo-1,3,2-dioxaphosphorinan-2-yl]-2′-C-methyl-beta-D-ribofuranosyl)-7H-pyrrolo[2,3-d]pyrimidine] has a melting point of 135 to 138 °C.
Work on `C[C@@]1(O)[C@H](O)[C@@H](CO[P@@]2(=O)OCC[C@@H](c3ccncc3)O2)O[C@H]1n1ccc2c(N)ncnc21` [Compound 16.7] yielded a melting point of 183 to 185 °C.
With `C[C@@]1(O)[C@H](O)[C@@H](COP2(=O)OCC[C@@H](c3ccccc3Br)O2)O[C@H]1n1ccc2c(N)ncnc21` (stereo partly drawn) [Compound 16.10, 4-amino-7-(cis-5′-O-[4-(2-bromophenyl)-2-oxo-1,3,2-dioxaphosphorinan-2-yl]-2′-C-methyl-beta-D-ribofuranosyl)-7H-pyrrolo[2,3-d]pyrimidine] the melting point was 132 to 135 °C.
With `C[C@@]1(O)[C@H](O)[C@@H](COP2(=O)OCC[C@@H](c3cncc(Br)c3)O2)O[C@H]1n1ccc2c(N)ncnc21` (stereo partly drawn) [Compound 16.11, 4-amino-7-(cis-5′-O-[4-(5-bromopyridin-3-yl)-2-oxo-1,3,2-dioxaphosphorinan-2-yl]-2′-C-methyl-beta-D-ribofuranosyl)-7H-pyrrolo[2,3-d]pyrimidine] the melting point was 132 to 135 °C.
With `C[C@@]1(O)[C@H](O)[C@@H](CO[P@@]2(=O)OCC[C@@H](c3ccccc3)O2)O[C@H]1n1ccc2c(N)ncnc21` [Compound 16.12, 4-amino-7-(cis-5′-O-[4-(S)-phenyl-2-oxo-1,3,2-dioxaphosphorinan-2-y]-2′-C-methyl-beta-D-ribofuranosyl)-7H-pyrrolo[2,3-d]pyrimidine] the melting point was 115 to 118 °C.
Compound `C[C@@]1(O)[C@H](O)[C@@H](COP2(=O)OCC[C@@H](c3ccccc3Cl)O2)O[C@H]1n1ccc2c(N)ncnc21` (stereo partly drawn) [Compound 16.14, 4-amino-7-(cis-5′-O-[4-(2-chlorophenyl)-2-oxo-1,3,2-dioxaphosphorinan-2-yl]-2′-C-methyl-beta-D-ribofuranosyl)-7H-pyrrolo[2,3-d]pyrimidine] has a melting point of 187 to 190 °C.
Compound `C[C@@]1(O)[C@H](O)[C@@H](COP2(=O)OC[C@@H](c3ccccc3)[C@@H](c3ccccc3)O2)O[C@H]1n1ccc2c(N)ncnc21` (stereo partly drawn) [Compound 16.22, 4-amino-7-(trans-5′-O-[4,5-cis-diphenyl-2-oxo-1,3,2-dioxaphosphorinan-2-yl]-2′-C-methyl-beta-D-ribofuranosyl)-7H-pyrrolo[2,3-d]pyrimidine] has a melting point of 160 to 163 °C.
Work on `C[C@@]1(O)[C@H](O)[C@@H](COP2(=O)OCC[C@@H](c3cc(Cl)ccc3Br)O2)O[C@H]1n1ccc2c(N)ncnc21` (stereo partly drawn) [Compound 16.25, 4-amino-7-(cis-5′-O-[4-(2-bromo-5-chlorophenyl)-2-oxo-1,3,2-dioxaphosphorinan-2-yl]-2′-C-methyl-beta-D-ribofuranosyl)-7H-pyrrolo[2,3-d]pyrimidine] yielded a melting point of 193 to 196 °C.
In the case of `C[C@@]1(O)[C@H](O)[C@@H](COP2(=O)OCC[C@H](c3cc(Cl)cc(Cl)c3)O2)O[C@H]1n1ccc2c(N)ncnc21` (stereo partly drawn) [Compound 16.26, 4-amino-7-(cis-5′-O-[4-(3,5-dichlorophenyl)-2-oxo-1,3,2-dioxaphosphorinan-2-yl]-2′-C-methyl-beta-D-ribofuranosyl)-7H-pyrrolo[2,3-d]pyrimidine], the melting point is reported as 182 to 185 °C.
`C[C@@]1(O)[C@H](O)[C@@H](COP2(=O)OCC[C@H](c3cc(F)cc(F)c3)O2)O[C@H]1n1ccc2c(N)ncnc21` (stereo partly drawn) [Compound 16.27, 4-amino-7-(cis-5′-O-[-4-(3,5-difluorophenyl)-2-oxo-1,3,2-dioxaphosphorinan-2-yl]-2′-C-methyl-beta-D-ribofuranosyl)-7H-pyrrolo[2,3-d]pyrimidine] showed a melting point of 135 to 140 °C.
In the case of `C[C@@]1(O)[C@H](O)[C@@H](CO[P@]2(=O)OCC[C@H](c3cccc(Cl)c3)O2)O[C@H]1n1ccc2c(N)ncnc21` [Compound 16.28, 4-amino-7-(cis-5′-O-[4-(R)-(3-chlorophenyl)-2-oxo-1,3,2-dioxaphosphorinan-2-yl]-2′-C-methyl-beta-D-ribofuranosyl)-7H-pyrrolo[2,3-d]pyrimidine], the melting point is reported as 126 to 128 °C.
Work on `C[C@@]1(O)[C@H](O)[C@@H](COP2(=O)OCC[C@H](c3ccccc3C(F)(F)F)O2)O[C@H]1n1ccc2c(N)ncnc21` (stereo partly drawn) [Compound 16.29, 4-amino-7-(cis-5′-O-[4-(2-trifluoromethylphenyl)-2-oxo-4,3,2-dioxaphosphorinan-2-yl]-2′-C-methyl-beta-D-ribofuranosyl)-7H-pyrrolo[2,3-d]pyrimidine] yielded a melting point of 115 to 120 °C.
Work on `C[C@@]1(O)[C@H](O)[C@@H](CO[P@]2(=O)OCC[C@H](c3ccncc3)O2)O[C@H]1n1ccc2c(N)ncnc21` [Compound 16.30, 4-amino-7-(cis-5′-O-[4-(R)-(pyridin-4-yl)-2-oxo-1,3,2-dioxaphosphorinan-2-yl]-2′-C-methyl-beta-D-ribofuranosyl)-7H-pyrrolo[2,3-d]pyrimidine] yielded a melting point of 132 to 136 °C.
In the case of `C[C@@]1(O)[C@H](O)[C@@H](COP2(=O)OCC[C@H](c3cccnc3)O2)O[C@H]1n1ccc2c(N)ncnc21` (stereo partly drawn) [Compound 16.32], the melting point is reported as 134 to 138 °C.
Compound `C[C@@]1(O)[C@H](O)[C@@H](CO[P@]2(=O)OCC[C@H](c3ccccc3)O2)O[C@H]1n1ccc2c(N)ncnc21` [Compound 16.34] has a melting point of 177 to 180 °C.
`C[C@@]1(O)[C@H](O)[C@@H](COP2(=O)OCC[C@H](c3ccccc3F)O2)O[C@H]1n1ccc2c(N)ncnc21` (stereo partly drawn) [Compound 16.39, 4-amino-7-(cis-5′-O-[4-(2-fluorophenyl)-2-oxo-1,3,2-dioxaphosphorinan-2-yl]-2′-C-methyl-beta-D-ribofuranosyl)-7H-pyrrolo[2,3-d]pyrimidine] gave a melting point of 101 to 103 °C.
For `C[C@@]1(O)[C@H](O)[C@@H](COP2(=O)OC3CCCCC3[C@@H](c3ccccc3)O2)O[C@H]1n1ccc2c(N)ncnc21` (stereo partly drawn) [Compound 16.42, 4-amino-7-(cis-5′-O-[4-phenyl-5,6-tetramethylene-2-oxo-1,3,2-dioxaphosphorinan-2-yl]-2′-C-methyl-beta-D-ribofuranosyl)-7H-pyrrolo[2,3-d]pyrimidine], the melting point was 110 to 113 °C.
Compound `C[C@@]1(O)[C@H](O)[C@@H](COP2(=O)OCC[C@H](c3cccc(C#N)c3)O2)O[C@H]1n1ccc2c(N)ncnc21` (stereo partly drawn) [Compound 16.43, 4-amino-7-(cis-5′-O-[4-(3-cyanophenyl)-2-oxo-1,3,2-dioxaphosphorinan-2-yl]-2′-C-methyl-beta-D-ribofuranosyl)-7H-pyrrolo[2,3-d]pyrimidine] has a melting point of 157 to 160 °C.
Work on `C[C@@]1(O)[C@H](O)[C@@H](COP2(=O)OCC[C@@H](c3cccc(Cl)c3)O2)O[C@H]1n1ccc2c(=O)[nH]c(N)nc21` (stereo partly drawn) [Compound 17.2, 2-amino-7-(cis-5-O-[4-(S)-(3-chlorophenyl)-2-oxo-1,3,2-dioxaphosphorinan-2-yl]-2′-C methyl-beta-D-ribofuranosyl)-7H-pyrrolo[2,3-d]pyrimidin-4(3H)-one] yielded a melting point of 175 °C.
For `C[C@@]1(O)[C@H](O)[C@@H](COP2(=O)OCC[C@@H](c3cc(F)ccc3F)O2)O[C@H]1n1ccc2c(=O)[nH]c(N)nc21` (stereo partly drawn) [Compound 17.6, 2-amino-7-(cis-5′-O-[4-(2,5-difluorophenyl)-2-oxo-1,3,2-dioxaphosphorinan-2-yl]-2′-C methyl-beta-D-ribofuranosyl)-7H-pyrrolo[2,3-d]pyrimidin-4(3H)-one], the melting point was 170 to 173 °C.
`C[C@@]1(O)[C@H](O)[C@@H](COP2(=O)OCC[C@H](c3cc(Cl)cc(Cl)c3)O2)O[C@H]1n1ccc2c(=O)[nH]c(N)nc21` (stereo partly drawn) [Compound 17.12, 2-amino-7-(cis-5′-O-[4-(3,5-dichlorophenyl)-2-oxo-1,3,2-dioxaphosphorinan-2-yl]-2′C methyl-beta-D-ribofuranosyl)-7H-pyrrolo[2,3-d]pyrimidin-4(3H)-one] gave a melting point of 177 to 180 °C.
`C[C@@]1(O)[C@H](O)[C@@H](CO[P@@]2(=O)OCC[C@@H](c3ccncc3)O2)O[C@H]1n1ccc2c(=O)[nH]c(N)nc21` [Compound 17.13, 2-amino-7-(cis-5-O-[4-(S)-(pyridin-4-yl)-2-oxo-1,3,2-dioxaphosphorinan-2-yl]-2-C methyl-beta-D-ribofuranosyl)-7H-pyrrolo[2,3-d]pyrimidin-4(3H)-one] gave a melting point of 138 to 141 °C.
`C[C@@]1(O)[C@H](O)[C@@H](COP2(=O)OCC[C@@H](c3cccc(F)c3)O2)O[C@H]1n1ccc2c(=O)[nH]c(N)nc21` (stereo partly drawn) [Compound 17.14, 2-amino-7-(cis-5′-O-[4-(3-fluorophenyl)-2-oxo-1,3,2-dioxaphosphorinan-2-yl]-2-C methyl-beta-D-ribofuranosyl)-7H-pyrrolo[2,3-d]pyrimidin-4(3H)-one] gave a melting point of 170 °C.
